We go through eight compounds from DBAASP.

Assay in all cases: ≥ marks a high value that may be exact or a test limit, other limits are often not marked, values filed in µg/mL are converted to µM
For experiment [1], the system named is Lacticaseibacillus rhamnosus 1.0911.
For experiment [2], the system named is Staphylococcus aureus ATCC 43300.
Experiment [3] has as its system Escherichia coli UB1005.
Experiment [4] has as its system Lacticaseibacillus rhamnosus 1.0385.
The subject of experiment [5] is Pseudomonas aeruginosa ATCC 27853.
Experiment [6] deals with Lacticaseibacillus rhamnosus 7469.
Experiment [7] deals with Lactiplantibacillus plantarum 8014.
The subject of experiment [8] is Lacticaseibacillus rhamnosus 1.0925.
For experiment [9], the system named is Staphylococcus epidermidis ATCC 12228.
Experiment [10] has as its system Lacticaseibacillus rhamnosus 1.0386.
Experiment [11] deals with Staphylococcus aureus ATCC 29213.
Experiment [12] has as its system Staphylococcus aureus ATCC 33591.
In experiment [13] the test system is Staphylococcus aureus ATCC 25923.
Experiment [14] has as its system Escherichia coli ATCC 11229.
Experiment [15] deals with Candida albicans FRR 5580.
Experiment [16] deals with Escherichia coli ATCC 25922.
Experiment [17] relates to Pseudomonas aeruginosa ATCC 9027.
Experiment [18] has as its system Salmonella enterica subsp. enterica serovar Enteritidis.
Experiment [19] deals with Escherichia coli.
Experiment [20] concerns Yersinia enterocolitica.
Experiment [21] concerns Salmonella sp.
Experiment [22] relates to Staphylococcus aureus ATCC 9144.
For experiment [23], the system named is Serratia marcescens ATCC 4112.
The test system of experiment [24] is Micrococcus luteus A270.
Experiment [25] deals with Bacillus subtilis ATCC 6633.
In experiment [26] the test system is Candida albicans MDM8.
Experiment [27] deals with Bacillus megaterium ATCC 10778.
In experiment [28] the test system is Pseudomonas aeruginosa NCTC 13437.
Experiment [29] relates to Enterobacter cloacae beta-12.
The test system of experiment [30] is Candida tropicalis IOC 4560.
Experiment [31] has as its system Escherichia coli NCTC 12923.
Experiment [32] deals with Staphylococcus aureus USA 300.
Experiment [33] relates to Escherichia coli SBS 363.
Experiment [34] concerns Acinetobacter baumannii ATCC 17978.
Experiment [35] relates to Pseudomonas aeruginosa NCIB 10421.
The subject of experiment [36] is Pseudomonas aeruginosa PAO1.
For experiment [37], the system named is Klebsiella pneumoniae NCTC 13368.
The test system of experiment [38] is Escherichia coli W3110.
In experiment [39] the test system is Klebsiella pneumoniae ATCC BAA-1705.
Experiment [40] has as its system Staphylococcus aureus.

Values after ≈ are worked out from the molar mass of the structure shown.

With `C[C@@H](O)[C@H](NC(=O)[C@H](Cc1c[nH]c2ccccc12)NC(=O)[C@H](Cc1c[nH]c2ccccc12)NC(=O)[C@H](Cc1c[nH]c2ccccc12)NC(=O)[C@@H](NC(=O)[C@H](Cc1c[nH]c2ccccc12)NC(=O)[C@H](CCCN=C(N)N)NC(=O)[C@@H](N)CCCN=C(N)N)[C@@H](C)O)C(=O)N[C@@H](Cc1c[nH]c2ccccc12)C(=O)N[C@@H](CCCN=C(N)N)C(=O)N[C@@H](CCCN=C(N)N)C(N)=O` [RRWTWWWTWRR], the MIC in experiment [1] was no less than 64 µM; in experiment [2], 4 µM (≈ 7.1 µg/mL); in experiment [3], 2 µM (≈ 3.55 µg/mL); in [4] it was no less than 64 µM; in experiment [5], 4 µM (≈ 7.1 µg/mL); in experiment [6] it was no less than 64 µM. Further, the MIC was no less than 64 µM in experiment [7], no less than 64 µM in experiment [8], 2 µM (≈ 3.55 µg/mL) in experiment [9] and no less than 64 µM in [10].

As for `CC[C@H](C)[C@H](NC(=O)[C@H](CCCN=C(N)N)NC(=O)[C@H](CCSC)NC(=O)[C@H](C)NC(=O)[C@H](CCCN=C(N)N)NC(=O)CNC(=O)[C@H](C)NC(=O)[C@@H](NC(=O)[C@@H](N)CO)C(C)C)C(=O)NCC(=O)N[C@@H](CC(C)C)C(=O)N[C@@H](CCCN=C(N)N)C(=O)N[C@@H](Cc1ccccc1)C(=O)N[C@H](C(=O)N[C@@H](CC(C)C)C(=O)N[C@@H](CCSC)C(=O)O)C(C)C` [SVAGRAMRIGLRFVLM], the MIC in experiment [11] is 36 µM (≈ 64 µg/mL); in [12], no less than 36 µM; in experiment [13] it was 36 µM (≈ 64 µg/mL); in experiment [14] it was no less than 36 µM.

Consider `NCCCC[C@H](NC(=O)[C@H](Cc1c[nH]c2ccccc12)NC(=O)[C@H](Cc1c[nH]c2ccccc12)NC(=O)[C@H](CCCCN)NC(=O)[C@H](Cc1c[nH]c2ccccc12)NC(=O)[C@H](Cc1c[nH]c2ccccc12)NC(=O)[C@H](CCCN=C(N)N)NC(=O)[C@@H](N)Cc1c[nH]c2ccccc12)C(N)=O` [WRWWKWWK], for which the MIC in experiment [15] was no less than 47 µM; in experiment [16], 2.94 µM (≈ 4 µg/mL); in experiment [13], 5.88 µM (≈ 7.99 µg/mL); in experiment [17] it was 23.5 µM (≈ 32 µg/mL).

Take `NC(=O)[C@H](CCCN=C(N)N)NC(=O)[C@H](CCCN=C(N)N)NC(=O)[C@H](Cc1c[nH]c2ccccc12)NC(=O)[C@H](CS)NC(=O)[C@H](Cc1c[nH]c2ccccc12)NC(=O)[C@H](Cc1c[nH]c2ccccc12)NC(=O)[C@H](Cc1c[nH]c2ccccc12)NC(=O)[C@H](CS)NC(=O)[C@H](Cc1c[nH]c2ccccc12)NC(=O)[C@H](CCCN=C(N)N)NC(=O)[C@@H](N)CCCN=C(N)N` [RRWCWWWCWRR]: the MIC in experiment [1] is no less than 64 µM; in experiment [2], 4 µM (≈ 7.12 µg/mL); in experiment [3], 16 µM (≈ 28.5 µg/mL); in experiment [11], 8 µM (≈ 14.2 µg/mL); in experiment [4], no less than 64 µM; in experiment [5] it was 8 µM (≈ 14.2 µg/mL). For the same compound, the MIC in experiment [6] is no less than 64 µM; in experiment [7], 8 µM (≈ 14.2 µg/mL); in experiment [16] it was greater than 64 µM; in [8], no less than 64 µM; in [9] it was 8 µM (≈ 14.2 µg/mL); in experiment [10] it was 16 µM (≈ 28.5 µg/mL).

For `NCCCC[C@H](NC(=O)[C@H](CCCCN)NC(=O)[C@H](Cc1ccccc1)NC(=O)[C@H](CCCCN)NC(=O)[C@H](CCCN=C(N)N)NC(=O)[C@H](CCCN=C(N)N)NC(=O)[C@H](Cc1ccccc1)NC(=O)[C@H](CCCCN)NC(=O)[C@@H](N)CCCN=C(N)N)C(N)=O` [RKFRRKFKK], the MIC is greater than 50 µM in experiment [2]; no less than 50 µM in experiment [18]; greater than 50 µM in [11]; greater than 50 µM in experiment [5]; greater than 50 µM in experiment [19]; greater than 50 µM in experiment [16]. In addition, the MIC in experiment [20] and in experiment [21] was no less than 50 µM throughout.

Consider `CC[C@H](C)[C@H](NC(=O)[C@H](CCCCN)NC(=O)[C@H](CCC(=O)O)NC(=O)[C@H](Cc1c[nH]c2ccccc12)NC(=O)[C@H](Cc1ccccc1)NC(=O)[C@H](CCCCN)NC(=O)CNC(=O)[C@H](CC(C)C)NC(=O)[C@H](C)N)C(=O)N[C@@H](CCCCN)C(=O)N[C@@H](CO)C(=O)N[C@@H](CC(C)C)C(=O)N[C@@H](Cc1ccccc1)C(N)=O` [ALGKFWEKIKSLF], for which the MIC in [22] was 2.55 µM (≈ 4 µg/mL); in experiment [23] it was 0.36 µM (≈ 0.564 µg/mL); in experiment [24] it was 0.78 µM (≈ 1.22 µg/mL); in experiment [11], 3.13 µM (≈ 4.9 µg/mL); in [25], 0.78 µM (≈ 1.22 µg/mL); in experiment [26] it was 3.13 µM (≈ 4.9 µg/mL). The MIC in [27] is 0.78 µM (≈ 1.22 µg/mL); in [28], no less than 40.8 µM; in [29] it was 6.25 µM (≈ 9.79 µg/mL); in experiment [30] it was 0.78 µM (≈ 1.22 µg/mL); in experiment [31], 5.11 µM (≈ 8 µg/mL); in experiment [32], 10.2 µM (≈ 16 µg/mL). Further, the MIC in [33] was 1.56 µM (≈ 2.44 µg/mL); in [34], 2.55 µM (≈ 4 µg/mL); in experiment [35] it was 12.5 µM (≈ 19.6 µg/mL); in [36] it was greater than 81.7 µM; in [37] it was 10.2 µM (≈ 16 µg/mL).

Turning to `CC[C@H](C)[C@H](NC(=O)[C@H](CCCCN)NC(=O)[C@H](CCCCN)NC(=O)[C@H](Cc1ccc(O)cc1)NC(=O)[C@H](CCCCN)NC(=O)[C@H](CC(C)C)NC(=O)[C@H](CC(C)C)NC(=O)[C@H](CCCCN)NC(=O)[C@H](CC(C)C)NC(=O)CNC(=O)[C@H](Cc1c[nH]c2ccccc12)NC(=O)[C@H](CS)NC(=O)[C@H](C)NC(=O)[C@H](Cc1c[nH]c2ccccc12)NC(=O)[C@H](CCCN=C(N)N)NC(=O)[C@@H](N)Cc1c[nH]c2ccccc12)C(=O)N[C@@H](Cc1ccc(O)cc1)C(=O)O` [WRWACWGLKLLKYKKIY], the results for the MIC in [38] and in experiment [39] were 1 µM (≈ 2.26 µg/mL) and no less than 64 µM, respectively.

`NCCCC[C@H](NC(=O)[C@H](Cc1c[nH]c2ccccc12)NC(=O)[C@H](Cc1c[nH]c2ccccc12)NC(=O)[C@H](CCCN=C(N)N)NC(=O)[C@@H](N)Cc1c[nH]c2ccccc12)C(=O)N[C@@H](Cc1c[nH]c2ccccc12)C(=O)N[C@@H](Cc1c[nH]c2ccccc12)C(N)=O` [WRWWKWW]: the MIC is 6.49 µM (≈ 7.99 µg/mL) in experiment [40]; no less than 51.9 µM in experiment [15]; 3.24 µM (≈ 4 µg/mL) in experiment [16]; 6.49 µM (≈ 7.99 µg/mL) in [13]; 25.9 µM (≈ 32 µg/mL) in experiment [17].
